Common to all, as to assay: biochemical
What all share (design): KINOMEscan active site-directed competition binding assay (DiscoveRx), 456 kinases, per cent of control at 300 nM
What all share (conditions): read-out: Percent of Control (%)

Test [1] deals with ACVRL1 (Homo sapiens, UniProt P37023). In short, it runs like this:
(§1)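 Kinase panel (456 enzymes) profiled by competitive displacement at the active site; compounds run at 300 nmol/L.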

For test [2], the target named is AKT3 (Homo sapiens, UniProt Q9Y243). In short, it runs like this: as §1
Test [3] concerns the target HIPK3 (Homo sapiens, UniProt Q9H422). The essentials:
as §1

The target in test [4] is IGF1R (Homo sapiens, UniProt P08069). In short, it runs like this: as §1
Test [5] addresses T1, NIM1 (Homo sapiens, UniProt Q8IY84).
T1 construct: gene NIM1K
The essentials: as §1

In test [6] the target is KIT(A829P) (Homo sapiens, UniProt P10721, A829P). In short, it runs like this: as §1
Test [7] addresses IRAK3 (Homo sapiens, UniProt Q9Y616). In short, it runs like this:
as §1

Test [8] concerns the target TLK1 (Homo sapiens, UniProt Q9UKI8). In short, it runs like this: as §1
Test [9] deals with TESK1 (Homo sapiens, UniProt Q15569). In short, it runs like this:
as §1

Test [10] has as its target T2, MST3 (Homo sapiens, UniProt Q9Y6E0).
T2 construct: gene STK24
In short, it runs like this: as §1

The target in test [11] is FLT3(D835Y) (Homo sapiens, UniProt P36888, D835Y). The essentials: as §1
Test [12] has as its target CSNK1G2 (Homo sapiens, UniProt P78368). In short, it runs like this:
as §1

Test [13] addresses MTOR (Homo sapiens, UniProt P42345). The essentials:
as §1

Test [14] addresses PIK3CA(H1047Y) (Homo sapiens, UniProt P42336, H1047Y). In short, it runs like this:
as §1

The target in test [15] is T3, ABL1(F317L)-nonphosphorylated (Homo sapiens, UniProt P00519, F317L).
T3 construct: nonphosphorylated
In short, it runs like this:
as §1

In test [16] the target is PIK3CA (Homo sapiens, UniProt P42336). In short, it runs like this:
as §1

In test [17] the target is CSNK1D (Homo sapiens, UniProt P48730). The essentials: as §1
Test [18] concerns the target CSF1R-autoinhibited (Homo sapiens, UniProt P07333). In short, it runs like this: as §1
Test [19] deals with T4, ZAK (Homo sapiens, UniProt Q9NYL2).
T4 construct: gene MAP3K20
The essentials: as §1

Test [20] deals with LATS2 (Homo sapiens, UniProt Q9NRM7). The essentials: as §1
In test [21] the target is RIPK2 (Homo sapiens, UniProt O43353). The essentials:
as §1

Test [22] deals with MYLK (Homo sapiens, UniProt Q15746). The essentials: as §1

Like-named read-outs stand apart in the source and are kept apart here.

Sequence of PIK3CA (P42336 whole entry): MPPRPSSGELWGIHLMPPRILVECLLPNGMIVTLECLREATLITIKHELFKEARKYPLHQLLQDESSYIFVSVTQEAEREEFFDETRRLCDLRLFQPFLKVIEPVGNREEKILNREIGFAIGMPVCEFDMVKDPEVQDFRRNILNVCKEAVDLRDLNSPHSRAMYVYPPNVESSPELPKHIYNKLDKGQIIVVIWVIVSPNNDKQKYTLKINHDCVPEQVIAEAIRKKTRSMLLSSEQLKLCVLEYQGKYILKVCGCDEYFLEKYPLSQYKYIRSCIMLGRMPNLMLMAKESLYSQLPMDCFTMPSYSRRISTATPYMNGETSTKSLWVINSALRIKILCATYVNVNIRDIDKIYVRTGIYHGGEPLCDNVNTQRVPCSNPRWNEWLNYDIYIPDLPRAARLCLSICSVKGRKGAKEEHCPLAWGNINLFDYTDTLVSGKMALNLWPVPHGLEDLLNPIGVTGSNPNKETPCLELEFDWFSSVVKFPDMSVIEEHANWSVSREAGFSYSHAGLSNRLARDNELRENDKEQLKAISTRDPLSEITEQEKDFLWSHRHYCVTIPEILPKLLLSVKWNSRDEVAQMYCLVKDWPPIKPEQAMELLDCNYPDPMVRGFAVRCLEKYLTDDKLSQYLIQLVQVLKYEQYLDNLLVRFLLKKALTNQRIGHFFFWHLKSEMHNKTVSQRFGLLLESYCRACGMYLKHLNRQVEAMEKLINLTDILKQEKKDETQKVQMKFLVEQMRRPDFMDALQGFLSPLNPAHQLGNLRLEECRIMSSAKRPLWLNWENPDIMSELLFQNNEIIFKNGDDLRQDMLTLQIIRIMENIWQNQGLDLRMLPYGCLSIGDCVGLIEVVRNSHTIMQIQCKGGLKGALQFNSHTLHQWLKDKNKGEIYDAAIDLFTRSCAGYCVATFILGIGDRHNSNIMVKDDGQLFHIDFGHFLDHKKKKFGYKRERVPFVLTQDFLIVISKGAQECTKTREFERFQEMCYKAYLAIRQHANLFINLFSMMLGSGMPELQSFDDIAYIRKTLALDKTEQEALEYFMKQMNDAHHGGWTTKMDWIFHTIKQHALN
Sequence of LATS2 (Q9NRM7 whole entry): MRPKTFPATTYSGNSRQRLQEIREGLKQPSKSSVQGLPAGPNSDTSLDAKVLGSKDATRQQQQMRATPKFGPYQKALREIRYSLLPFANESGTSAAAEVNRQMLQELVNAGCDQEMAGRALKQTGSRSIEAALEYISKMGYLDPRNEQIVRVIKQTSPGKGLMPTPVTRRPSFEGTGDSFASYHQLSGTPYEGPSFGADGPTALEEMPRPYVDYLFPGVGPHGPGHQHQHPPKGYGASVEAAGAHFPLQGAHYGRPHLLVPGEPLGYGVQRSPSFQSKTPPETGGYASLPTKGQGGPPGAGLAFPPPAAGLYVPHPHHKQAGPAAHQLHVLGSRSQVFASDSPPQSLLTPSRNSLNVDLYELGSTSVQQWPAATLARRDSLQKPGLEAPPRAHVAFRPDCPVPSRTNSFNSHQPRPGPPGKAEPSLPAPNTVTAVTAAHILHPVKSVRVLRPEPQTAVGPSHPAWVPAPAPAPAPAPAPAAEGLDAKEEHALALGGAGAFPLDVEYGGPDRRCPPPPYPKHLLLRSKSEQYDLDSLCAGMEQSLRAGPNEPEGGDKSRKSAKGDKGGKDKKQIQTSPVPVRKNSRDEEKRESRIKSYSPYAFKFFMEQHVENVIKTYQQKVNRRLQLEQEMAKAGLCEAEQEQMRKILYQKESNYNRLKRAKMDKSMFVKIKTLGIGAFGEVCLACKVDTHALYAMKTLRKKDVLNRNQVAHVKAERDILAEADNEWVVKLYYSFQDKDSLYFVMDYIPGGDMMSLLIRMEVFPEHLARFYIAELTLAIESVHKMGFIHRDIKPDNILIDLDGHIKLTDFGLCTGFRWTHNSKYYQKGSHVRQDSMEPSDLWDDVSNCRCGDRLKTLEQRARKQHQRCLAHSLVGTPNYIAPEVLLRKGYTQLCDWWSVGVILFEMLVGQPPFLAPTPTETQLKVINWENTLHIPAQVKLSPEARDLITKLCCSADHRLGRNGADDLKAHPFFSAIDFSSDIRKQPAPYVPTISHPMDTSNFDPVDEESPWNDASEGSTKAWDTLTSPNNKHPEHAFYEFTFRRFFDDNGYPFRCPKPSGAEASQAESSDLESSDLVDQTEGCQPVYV
Sequence of CSF1R-autoinhibited (P07333 whole entry): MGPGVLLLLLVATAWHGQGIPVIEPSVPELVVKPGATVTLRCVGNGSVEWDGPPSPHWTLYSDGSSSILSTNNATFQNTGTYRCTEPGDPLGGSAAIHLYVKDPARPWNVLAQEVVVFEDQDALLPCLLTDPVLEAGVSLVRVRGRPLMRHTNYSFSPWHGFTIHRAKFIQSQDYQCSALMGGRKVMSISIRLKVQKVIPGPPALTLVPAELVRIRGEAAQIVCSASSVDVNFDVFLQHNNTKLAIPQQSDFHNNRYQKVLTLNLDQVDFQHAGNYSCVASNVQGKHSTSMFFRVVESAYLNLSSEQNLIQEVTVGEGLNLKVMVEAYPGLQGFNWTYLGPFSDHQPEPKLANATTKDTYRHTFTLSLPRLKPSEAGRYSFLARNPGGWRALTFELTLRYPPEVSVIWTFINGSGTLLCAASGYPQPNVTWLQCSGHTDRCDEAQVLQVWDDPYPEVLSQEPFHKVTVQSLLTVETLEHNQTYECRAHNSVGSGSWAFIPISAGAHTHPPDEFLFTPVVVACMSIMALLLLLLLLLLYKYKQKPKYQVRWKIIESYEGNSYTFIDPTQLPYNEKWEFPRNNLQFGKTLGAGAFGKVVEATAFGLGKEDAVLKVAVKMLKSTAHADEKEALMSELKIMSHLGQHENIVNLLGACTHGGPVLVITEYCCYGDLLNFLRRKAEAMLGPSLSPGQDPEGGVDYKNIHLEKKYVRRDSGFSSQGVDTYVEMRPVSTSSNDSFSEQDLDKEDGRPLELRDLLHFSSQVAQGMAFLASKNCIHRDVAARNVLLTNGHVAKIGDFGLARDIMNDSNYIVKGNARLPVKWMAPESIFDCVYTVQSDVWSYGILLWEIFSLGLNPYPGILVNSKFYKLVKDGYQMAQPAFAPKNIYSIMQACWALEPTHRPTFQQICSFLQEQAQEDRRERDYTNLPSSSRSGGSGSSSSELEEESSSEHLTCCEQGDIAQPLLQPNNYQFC
Sequence of RIPK2 (O43353 whole entry): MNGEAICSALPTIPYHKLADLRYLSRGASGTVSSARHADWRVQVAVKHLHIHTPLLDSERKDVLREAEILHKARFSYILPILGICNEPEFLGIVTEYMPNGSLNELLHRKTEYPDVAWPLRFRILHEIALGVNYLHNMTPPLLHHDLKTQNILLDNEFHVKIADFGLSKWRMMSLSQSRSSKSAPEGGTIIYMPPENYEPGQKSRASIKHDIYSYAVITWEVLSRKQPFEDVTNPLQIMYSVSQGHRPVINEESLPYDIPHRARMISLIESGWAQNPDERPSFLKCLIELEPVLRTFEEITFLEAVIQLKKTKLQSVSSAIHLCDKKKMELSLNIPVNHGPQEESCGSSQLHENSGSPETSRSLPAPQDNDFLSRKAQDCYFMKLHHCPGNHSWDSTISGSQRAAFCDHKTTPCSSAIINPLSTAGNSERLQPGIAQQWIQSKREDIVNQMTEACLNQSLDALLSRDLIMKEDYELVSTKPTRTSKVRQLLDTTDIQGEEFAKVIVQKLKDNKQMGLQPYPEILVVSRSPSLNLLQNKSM
T3 sequence (P00519 whole entry F317L): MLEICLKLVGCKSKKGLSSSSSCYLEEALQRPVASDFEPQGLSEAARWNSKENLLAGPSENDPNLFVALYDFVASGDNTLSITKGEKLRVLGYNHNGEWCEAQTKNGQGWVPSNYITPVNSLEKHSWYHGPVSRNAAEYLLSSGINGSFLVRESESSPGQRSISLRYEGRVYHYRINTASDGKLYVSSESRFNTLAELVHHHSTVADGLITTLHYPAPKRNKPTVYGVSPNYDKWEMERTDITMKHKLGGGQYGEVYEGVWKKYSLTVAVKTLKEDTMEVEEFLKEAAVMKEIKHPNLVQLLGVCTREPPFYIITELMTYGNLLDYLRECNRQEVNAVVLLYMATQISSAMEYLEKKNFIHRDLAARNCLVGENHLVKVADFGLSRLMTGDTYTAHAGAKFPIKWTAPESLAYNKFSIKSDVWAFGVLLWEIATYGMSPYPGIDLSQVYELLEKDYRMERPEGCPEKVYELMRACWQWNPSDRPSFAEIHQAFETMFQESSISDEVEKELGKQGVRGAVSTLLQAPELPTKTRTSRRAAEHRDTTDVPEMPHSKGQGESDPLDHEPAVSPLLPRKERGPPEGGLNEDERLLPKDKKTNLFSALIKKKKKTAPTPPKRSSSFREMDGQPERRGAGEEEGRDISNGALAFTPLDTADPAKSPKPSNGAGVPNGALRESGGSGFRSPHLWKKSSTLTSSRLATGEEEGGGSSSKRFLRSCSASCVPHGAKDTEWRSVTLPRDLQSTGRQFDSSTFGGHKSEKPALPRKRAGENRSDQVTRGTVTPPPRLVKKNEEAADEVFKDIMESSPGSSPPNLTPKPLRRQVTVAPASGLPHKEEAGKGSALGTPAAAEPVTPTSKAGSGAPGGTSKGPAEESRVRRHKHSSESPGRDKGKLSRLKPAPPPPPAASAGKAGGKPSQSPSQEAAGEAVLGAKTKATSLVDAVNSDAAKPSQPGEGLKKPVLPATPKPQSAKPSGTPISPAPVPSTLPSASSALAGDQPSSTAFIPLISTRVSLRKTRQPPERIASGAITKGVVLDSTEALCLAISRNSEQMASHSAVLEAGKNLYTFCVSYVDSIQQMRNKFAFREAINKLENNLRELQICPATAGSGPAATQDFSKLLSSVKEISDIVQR
Sequence of PIK3CA(H1047Y) (P42336 whole entry H1047Y): as the sequence (P42336 whole entry) above, with H1047Y counted along it

With `O=C(/C=C/c1cnccc1-c1ccc(F)cc1)Nc1ccc(CCc2nnco2)cc1` [T-418, (2E)-3-(4-(4-fluorophenyl)pyridin-3-yl)-N-(4-(2-(1,3,4-oxadiazol-2-yl)ethyl)phenyl)acrylamide], the remaining binding at 0.3 µM in test [1] (sheet T-418) was 77%; in [2] (sheet T-418), 100%; in [3] (sheet T-418), 64%; in [4] (sheet T-418), 87%; in [5] (sheet T-418), 100%; in test [6] (sheet T-418) it was 100%. Also, the remaining binding at 0.3 µM in test [7] (sheet T-418) was found to be 100%; in test [8] (sheet T-418), 100%; in test [9] (sheet T-418), 99%; in test [10] (sheet T-418), 100%; in test [11] (sheet T-418), 100%; in [12] (sheet T-418), 100%. The remaining binding at 0.3 µM was 100% in test [13] (sheet T-418); 73% in test [14] (sheet T-418); 100% in test [15] (sheet T-418); 84% in [16] (sheet T-418); 84% in test [17] (sheet T-418); 86% in [18] (sheet T-418). For the same compound, the remaining binding at 0.3 µM worked out at 73% in [19] (sheet T-418), 100% in test [20] (sheet T-418), 100% in test [21] (sheet T-418) and 100% in test [22] (sheet T-418).
`Cc1ncccc1Oc1sc(C(N)=O)c2c1-c1c(cnn1C)CC2` [T-474, 1-methyl-8-((2-methylpyridin-3-yl)oxy)-4,5-dihydro-1H-thieno[3,4-g]indazole-6-carboxamide]: the remaining binding at 0.3 µM in test [1] is 87%; in test [2] it was 97%; in [3], 79%; in test [4], 98%; in test [5], 63%; in test [6], 99%. In addition, the remaining binding at 0.3 µM in test [7] stood at 96%; in [8], 100%; in [9], 100%; in test [10], 100%; in test [11], 60%; in [12] it was 90%. Moreover, the remaining binding at 0.3 µM in test [13] was found to be 82%; in test [14], 54%; in test [15] it was 100%; in test [16], 92%; in test [17], 61%; in test [18], 100%. Further, the remaining binding at 0.3 µM stood at 74% in test [19], 100% in [20], 100% in test [21] and 100% in test [22].

For the origin of these results see paper PMC5862592, “CDK8/19 inhibition induces premature G1/S transition and ATR-dependent cell death in prostate cancer cells” (Oncotarget, 2018).
